# In PMC4303209, “A novel phosphatidylinositol 3-kinase (PI3K) inhibitor directs a potent FOXO-dependent, p53-independent cell cycle arrest phenotype characterized by the differential induction of a subset of FOXO-regulated genes” (Breast Cancer Research : BCR, 2014):
# Tested on: MCF-7 breast cancer cells
# Test: Microarray gene expression analysis (Agilent whole human genome 4 x 44K; compound vs DMSO, LIMMA log2 fold change)
# Type: cell-based
# Conditions: cell cycle genes
smiles,measurement,setting,value
Oc1cccc(-c2nc(N3CCOCC3)c3oc4ncccc4c3n2)c1 [PI-103],STAT5A log2FC,Gene 6776,0.39
same,STAT5B log2FC,Gene 6777,0.11
same,AURKA log2FC,Gene 6790,-0.02
same,STK10 log2FC,Gene 6793,-0.32
same,AURKC log2FC,Gene 6795,0.0218
same,SUV39H1 log2FC,Gene 6839,-0.50
same,TACC1 log2FC,Gene 6867,0.0342
same,ADAM17 log2FC,Gene 6868,0.53
same,TAF1 log2FC,Gene 6872,0.15
same,TAL1 log2FC,Gene 6886,-0.57
same,TBX3 log2FC,Gene 6926,-0.69
same,TCF3 log2FC,Gene 6929,0.0643
same,DYNLT3 log2FC,Gene 6990,-0.24
same,DYNLT1 log2FC,Gene 6993,-0.03
same,TERF1 log2FC,Gene 7013,0.38
same,TERF2 log2FC,Gene 7014,-0.16
same,TFAP4 log2FC,Gene 7023,0.39
same,NR2F2 log2FC,Gene 7026,0.34
same,TFDP1 log2FC,Gene 7027,-0.56
same,TFDP2 log2FC,Gene 7029,0.41
same,TGFB1 log2FC,Gene 7040,-0.44
same,THBS1 log2FC,Gene 7057,-0.91
same,TNF log2FC,Gene 7124,-1.87
same,TNFAIP3 log2FC,Gene 7128,-0.85
same,TOP2A log2FC,Gene 7153,0.91
same,TOP2B log2FC,Gene 7155,0.99
same,TOP3A log2FC,Gene 7156,-0.05
same,TP53 log2FC,Gene 7157,0.0569
same,TP53BP2 log2FC,Gene 7159,0.35
same,TPR log2FC,Gene 7175,0.74
same,TSC1 log2FC,Gene 7248,0.42
same,TSC2 log2FC,Gene 7249,-0.11
same,TSG101 log2FC,Gene 7251,0.39
same,TTK log2FC,Gene 7272,1.59
same,TUBG1 log2FC,Gene 7283,-0.33
same,UBA52 log2FC,Gene 7311,0.31
same,UBB log2FC,Gene 7314,0.0362
same,UBC log2FC,Gene 7316,0.33
same,UBE2B log2FC,Gene 7320,0.65
same,UBE2D1 log2FC,Gene 7321,0.50
same,UBE2E1 log2FC,Gene 7324,0.0118
same,UBE2I log2FC,Gene 7329,-0.30
same,WEE1 log2FC,Gene 7465,0.0429
same,WNT5A log2FC,Gene 7474,0.13
same,WNT10B log2FC,Gene 7480,-0.49
same,WNT9A log2FC,Gene 7483,0.04
same,XPC log2FC,Gene 7508,0.59
same,XRCC2 log2FC,Gene 7516,-0.60
same,YWHAG log2FC,Gene 7532,-0.88
same,ZNF16 log2FC,Gene 7564,0.34
same,ZBTB17 log2FC,Gene 7709,0.30
same,PTP4A1 log2FC,Gene 7803,-0.61
same,EVI5 log2FC,Gene 7813,0.44
same,ALMS1 log2FC,Gene 7840,0.65
same,NR4A3 log2FC,Gene 8013,0.34
same,NUP214 log2FC,Gene 8021,-0.41
same,FOSL1 log2FC,Gene 8061,-2.53
same,CUL5 log2FC,Gene 8065,-0.23
same,YEATS4 log2FC,Gene 8089,1.06
same,HMGA2 log2FC,Gene 8091,-1.51
same,CHAF1B log2FC,Gene 8208,-0.0543
same,CLTCL1 log2FC,Gene 8218,-0.03
same,USP9X log2FC,Gene 8239,0.62
same,SMC1A log2FC,Gene 8243,0.14
same,CDC7 log2FC,Gene 8317,0.32
same,RAD54L log2FC,Gene 8438,-0.18
same,CUL4B log2FC,Gene 8450,0.75
same,CUL4A log2FC,Gene 8451,0.38
same,CUL1 log2FC,Gene 8454,0.21
same,KLF11 log2FC,Gene 8462,1.20
same,OFD1 log2FC,Gene 8481,0.89
same,PKP4 log2FC,Gene 8502,0.15
same,GAS7 log2FC,Gene 8522,-0.00153
same,DGKZ log2FC,Gene 8525,-0.37
same,CAMK1 log2FC,Gene 8536,-0.0329
same,CDC14B log2FC,Gene 8555,0.10
same,CDK10 log2FC,Gene 8558,0.17
same,MADD log2FC,Gene 8567,0.75
same,DYNLL1 log2FC,Gene 8655,-1.05
same,TNKS log2FC,Gene 8658,0.82
same,BECN1 log2FC,Gene 8678,0.35
same,CDC23 log2FC,Gene 8697,0.30
same,CRADD log2FC,Gene 8738,-0.08
same,CCNK log2FC,Gene 8812,-0.50
same,BANF1 log2FC,Gene 8815,-0.32
same,CDK5R1 log2FC,Gene 8851,-0.33
same,IER3 log2FC,Gene 8870,-2.26
same,SPHK1 log2FC,Gene 8877,-0.42
same,CDC16 log2FC,Gene 8881,0.66
same,CCNA1 log2FC,Gene 8900,0.11
same,TIMELESS log2FC,Gene 8914,0.20
same,PHOX2B log2FC,Gene 8929,-0.0327
same,MBD4 log2FC,Gene 8930,0.29
same,BTRC log2FC,Gene 8945,0.17
same,WASL log2FC,Gene 8976,0.10
same,RNF8 log2FC,Gene 9025,-0.06
same,PRC1 log2FC,Gene 9055,0.34
same,USP2 log2FC,Gene 9099,-0.07
same,USP8 log2FC,Gene 9101,0.76
same,SMC3 log2FC,Gene 9126,1.35
same,EXO1 log2FC,Gene 9156,-0.12
same,ARHGEF2 log2FC,Gene 9181,-0.51
same,ZW10 log2FC,Gene 9183,0.27
same,BUB3 log2FC,Gene 9184,0.44
same,NOLC1 log2FC,Gene 9221,-0.67
same,CCPG1 log2FC,Gene 9236,1.09
same,MAPKAPK2 log2FC,Gene 9261,-0.19
same,PIWIL1 log2FC,Gene 9271,0.0443
same,RECQL5 log2FC,Gene 9400,0.48
same,ROCK2 log2FC,Gene 9475,0.20
same,PSMF1 log2FC,Gene 9491,-0.34
same,VPS4B log2FC,Gene 9525,0.64
same,CLOCK log2FC,Gene 9575,0.03
same,MAD2L1BP log2FC,Gene 9587,-0.27
same,ARHGEF10 log2FC,Gene 9639,0.19
same,MDC1 log2FC,Gene 9656,-0.21
same,CEP135 log2FC,Gene 9662,0.43
same,KIAA0430 log2FC,Gene 9665,0.91
same,CROCC log2FC,Gene 9696,-0.11
same,ESPL1 log2FC,Gene 9700,0.72
same,CEP57 log2FC,Gene 9702,1.20
same,UTP14C log2FC,Gene 9724,0.24
same,KNTC1 log2FC,Gene 9735,0.58
same,RASSF2 log2FC,Gene 9770,0.56
same,CKAP5 log2FC,Gene 9793,0.44
same,SFI1 log2FC,Gene 9814,0.17
same,RB1CC1 log2FC,Gene 9821,1.48
same,MELK log2FC,Gene 9833,0.25
same,GINS1 log2FC,Gene 9837,-0.84
same,MAGI2 log2FC,Gene 9863,0.33
same,TLK1 log2FC,Gene 9874,0.44
same,POM121 log2FC,Gene 9883,-0.58
same,KLHL21 log2FC,Gene 9903,0.49
same,DCLRE1A log2FC,Gene 9937,0.44
same,USP3 log2FC,Gene 9960,0.29
same,THOC1 log2FC,Gene 9984,0.38
same,DMTF1 log2FC,Gene 9988,0.44
same,CASP8AP2 log2FC,Gene 9994,0.61
same,PDCD6IP log2FC,Gene 10015,0.60
same,BCL2L11 log2FC,Gene 10018,0.09
same,CHAF1A log2FC,Gene 10036,-0.38
same,PARP3 log2FC,Gene 10039,0.48
same,TOM1L1 log2FC,Gene 10040,0.60
same,SMC4 log2FC,Gene 10051,0.76
same,ACTR2 log2FC,Gene 10097,-0.39
same,RAD50 log2FC,Gene 10111,0.41
same,KIF20A log2FC,Gene 10112,0.59
same,OPTN log2FC,Gene 10133,0.73
same,AKAP9 log2FC,Gene 10142,1.37
same,PSME3 log2FC,Gene 10197,-1.22
same,MPHOSPH9 log2FC,Gene 10198,0.40
same,MPHOSPH6 log2FC,Gene 10200,-0.88
same,MAEA log2FC,Gene 10296,-0.11
same,PAK4 log2FC,Gene 10298,-0.42
same,NPM2 log2FC,Gene 10361,-0.11
same,HMG20B log2FC,Gene 10362,0.52
same,CITED2 log2FC,Gene 10370,2.31
